The test system of this data set is C3 mRNA. Description: Dose response experiments (DRC) of modification variants, C3 mRNA knockdown in HepG2 cells. It counts as cell-based, human. The conditions noted are these: for IC50 / IC80: 10 concentrations from 100 nM in 6-fold dilution steps; for Max KD: DRC experiments. On the procedure: HepG2 cells were obtained from ATCC (ATCC in partnership with LGC Standards, Wesel, Germany, cat. #ATCC-HB-8065) and cultured in MEM Eagle (#M2279, Sigma-Aldrich, Germany), supplemented to contain 10% fetal calf serum (#1248D, Biochrom GmbH, Berlin, Germany), 1× non-essential amino acids (#K0293; Biochrom, Berlin, Germany), 4 mM L-Glutamine (#K0283, Biochrom, Berlin, Germany) and 100 U/ml Penicillin/100 μg/ml Streptomycin (#A2213, Biochrom GmbH, Berlin, Germany) at 37° C. in an atmosphere with 5% CO2 in a humidified incubator.
siRNAs were designed and synthesized based on the nucleotide sequence of the top siRNAs in terms of activity from Examples 1 and 2 (siRNA ID: 1, 4, 9, 10, 16, and 22) with different modification patterns. 5 “variants” were designed and synthesized for each of the top siRNA nucleotide sequences, and each duplex is identified as “variant1”, “variant2”, “variant3”, variant4”, “variant5” depending on which modifications were made. siRNAs from Examples 1 and 2 (siRNA ID: 1, 4, 9, 10, 16, and 22) are identified as “variant0”.
Transfection of siRNA was carried out with Lipofectamine RNAiMax (Invitrogen/Life Technologies, Karlsruhe, Germany) according to manufacturer's instructions for reverse transfection.
Each siRNA was tested using dose response experiments (DRC) in HepG2 cells. Two additional siRNAs (siRNA ID 26 and 27), known to knockdown C3 expression, were used as positive controls.
Dose-response experiments were done with siRNA in 10 concentrations transfected in quadruplicates, starting at 100 nM in 6-fold dilutions steps down to ˜10 fM. Mock transfected cells served as negative controls.
For each well, the target mRNA level was normalized to the respective GAPDH mRNA level. The activity of a given siRNA was expressed as percent mRNA concentration of the respective target (normalized to GAPDH mRNA) in treated cells, relative to the target mRNA concentration (normalized to GAPDH mRNA) averaged across mock transfected wells (DRCs).

Oligonucleotides are written 5' to 3', each unit as a sugar letter and its base; * is a phosphorothioate linkage, no mark a phosphodiester; rarer units and linkages stand in square brackets, end groups in braces. Plain capitals give the bases only. m = 2'-O-methyl; {P} = phosphate; f = 2'-fluoro

As a reminder, the IC50 is the concentration needed to halve the response being measured. A low value points to greater potency in that assay. For orientation: IC80 means the concentration at which the effect reaches the 80% level. Read a high IC80 as a need for much substance. As to “32 (sense mU*mC*fAmAmCmUfCfAfCmCmUfGmUmAmAmUfAmAmA; antisense mU*fU*mUmAmUfUmAmCmAmGmGmUmGfAmGfUmUmGmA*mU*mC; siRNA) [compound 32]”, the “C3 knockdown, comparison among modification variants of the same nucleotide sequence” value was “most effective in C3 knockdown”; the IC50 came out at 0.018 nM; the 80% effect level (IC80) was put at 0.108 nM; the “Max KD” value was determined as 93%.
Turning to “48 (sense mC*mA*fAmUmGmAfCfUfUmUmGfAmCmGmAmGfUmAmA; antisense mU*fU*mAmCmUmCmGmUmCmAmAmAmGfUmCmAmUmUmG*mG*mA; siRNA) [compound 48]”, the IC50 amounted to 0.119 nM, the 80% effect level (IC80) was put at 8.35 nM and the “Max KD” value is 82%.
The matching figures for “41 (sense fA*mU*fCmGfGmAfUmCfUmUfCmAfCmCfGmUfCmAfA; antisense mU*fU*mGmAmCfGmGmUmGmAmAmGmAfUmCfCmGmAmU*mA*mG; siRNA) [compound 41]”: 1.4 nM, 11.1 nM and 84%.
With “46 (sense fU*mC*fAmAfCmUfUmCfCmUfCmCfUmGfCmGfAmAfA; antisense mU*fU*mUmCmGfCmAmGmGmAmGmGmAfAmGfUmUmGmA*mC*mG; siRNA) [compound 46]”, the IC50 came out at 0.54 nM and the “Max KD” value is recorded as 63%.
In the case of “47 (sense UCAACUUCCUCCUGCGAAA; antisense UUUCGCAGGAGGAAGUUGACG; 2'-F, 2'-OMe, phosphorothioate modifications, chemistry not fully specified) [compound 47]”, the IC50 is 0.055 nM, the IC80 is 0.708 nM and the “Max KD” value turned out to be 83%.
The corresponding values for “43 (sense mU*mC*fAmAmCmUfUfCfCmUmCfCmUmGmCmGfAmAmA; antisense mU*fU*mUmCmGmCmAmGmGmAmGmGmAfAmGmUmUmGmA*mC*mG; siRNA) [compound 43]” are 0.096 nM, 3.22 nM and 82%.
The matching figures for “42 (sense mA*mU*fCmGmGmAfUfCfUmUmCfAmCmCmGmUfCmAmA; antisense mU*fU*mGmAmCfGmGmUmGmAmAmGmAfUmCfCmGmAmU*mA*mG; siRNA) [compound 42]”: 0.5 nM, 2.91 nM and 84%.
Consider “30 (sense fU*mC*fAmAfCmUfCmAfCmCfUmGfUmAfAmUfAmAfA; antisense mU*fU*mUmAmUmUmAmCmAmGmGmUmGfAmGmUmUmGmA*mU*mC; siRNA) [compound 30]”, for which the “Max KD” value is given as 36%.
Consider “27 (sense GAGCCGUUCUCUACAAUUAUU; antisense UAAUUGUAGAGAACGGCUCUU; siRNA; sense: all phosphodiester, sugars by position not given here; antisense: all phosphodiester, 5' {P}, sugars by position not given here) [compound 27]”, for which the half-inhibitory concentration (IC50) was found to be 0.004 nM, it took 0.027 nM to reach the 80% level (IC80) and the “Max KD” value is reported as 89%.
Consider “49 (sense fC*mA*fAmUfGmAfCmUfUmUfGmAfCmGfAmGfUmAfA; antisense mU*fU*mAfCmUfCmGfUmCfAmAfAmGfUmCfAmUfUmG*mG*mA; siRNA) [compound 49]”, for which the “Max KD” value turned out to be 28%.
As to “40 (sense fA*mU*fCmGfGmAfUmCfUmUfCmAfCmCfGmUfCmAfA; antisense mU*fU*mGmAmCmGmGmUmGmAmAmGmAfUmCmCmGmAmU*mA*mG; siRNA) [compound 40]”, half-maximal inhibition (IC50) required 0.468 nM, the IC80 amounted to 2.44 nM and the “Max KD” value came out at 87%.
In the case of “56 (sense fC*mC*fAmAfCmUfAmCfAmUfGmAfAmCfCmUfAmCfA; antisense mU*fG*mUmAmGfGmUmUmCmAmUmGmUfAmGfUmUmGmG*mC*mU; siRNA) [compound 56]”, 0.228 nM corresponded to half-maximal inhibition (IC50), the 80% effect level (IC80) was put at 1.2 nM and the “Max KD” value is 91%.
On to “54 (sense fC*mC*fAmAfCmUfAmCfAmUfGmAfAmCfCmUfAmCfA; antisense mU*fG*mUfAmGfGmUfUmCfAmUfGmUfAmGfUmUfGmG*mC*mU; siRNA) [compound 54]”, for which the IC50 was determined as 0.29 nM, the 80% effect level (IC80) was put at 1.52 nM and the “Max KD” value came out at 89%.
The corresponding values for “57 (sense mC*mC*fAmAmCmUfAfCfAmUmGfAmAmCmCmUfAmCmA; antisense mU*fG*mUmAmGfGmUmUmCmAmUmGmUfAmGfUmUmGmG*mC*mU; siRNA) [compound 57]” are 0.029 nM, 1.38 nM and 91%.
The matching figures for “31 (sense fU*mC*fAmAfCmUfCmAfCmCfUmGfUmAfAmUfAmAfA; antisense mU*fU*mUmAmUfUmAmCmAmGmGmUmGfAmGfUmUmGmA*mU*mC; siRNA) [compound 31]”: 0.343 nM, 7.64 nM and 81%.
The matching figures for “38 (sense mA*mU*fCmGmGmAfUfCfUmUmCfAmCmCmGmUfCmAmA; antisense mU*fU*mGmAmCmGmGmUmGmAmAmGmAfUmCmCmGmAmU*mA*mG; siRNA) [compound 38]”: 0.151 nM, 0.728 nM and 91%.
For the substance “51 (sense fC*mA*fAmUfGmAfCmUfUmUfGmAfCmGfAmGfUmAfA; antisense mU*fU*mAmCmUfCmGmUmCmAmAmAmGfUmCfAmUmUmG*mG*mA; siRNA) [compound 51]”, the “Max KD” value is on record as 32%.
On to “52 (sense mC*mA*fAmUmGmAfCfUfUmUmGfAmCmGmAmGfUmAmA; antisense mU*fU*mAmCmUfCmGmUmCmAmAmAmGfUmCfAmUmUmG*mG*mA; siRNA) [compound 52]”, for which it took 0.058 nM to reach half-maximal inhibition (IC50), the IC80 was found to be 1.89 nM and the “Max KD” value amounted to 85%.
Take “53 (sense mC*mC*fAmAmCmUfAfCfAmUmGfAmAmCmCmUfAmCmA; antisense mU*fG*mUmAmGmGmUmUmCmAmUmGmUfAmGmUmUmGmG*mC*mU; siRNA) [compound 53]”: the IC50 came out at 0.056 nM, the 80% effect level (IC80) was put at 0.51 nM and the “Max KD” value was 91%.
As to “45 (sense fU*mC*fAmAfCmUfUmCfCmUfCmCfUmGfCmGfAmAfA; antisense mU*fU*mUmCmGmCmAmGmGmAmGmGmAfAmGmUmUmGmA*mC*mG; siRNA) [compound 45]”, the IC50 stood at 0.905 nM and the “Max KD” value amounted to 50%.
On to “36 (sense fU*mC*fCmAfAmGfCmCfUmUfGmGfCmUfCmAfAmUfA; antisense mU*fA*mUmUmGfAmGmCmCmAmAmGmGfCmUfUmGmGmA*mA*mC; siRNA) [compound 36]”, for which 0.486 nM corresponded to half-maximal inhibition (IC50) and the “Max KD” value amounted to 68%.
Turning to “37 (sense mU*mC*fCmAmAmGfCfCfUmUmGfGmCmUmCmAfAmUmA; antisense mU*fA*mUmUmGfAmGmCmCmAmAmGmGfCmUfUmGmGmA*mA*mC; siRNA) [compound 37]”, the 50% inhibitory concentration (IC50) was 0.168 nM, the 80% effect level (IC80) was put at 1.38 nM and the “Max KD” value is reported as 86%.
The matching figures for “34 (sense fU*mC*fCmAfAmGfCmCfUmUfGmGfCmUfCmAfAmUfA; antisense mU*fA*mUfUmGfAmGfCmCfAmAfGmGfCmUfUmGfGmA*mA*mC; siRNA) [compound 34]”: 0.324 nM, 1.64 nM and 86%.
Turning to “33 (sense mU*mC*fCmAmAmGfCfCfUmUmGfGmCmUmCmAfAmUmA; antisense mU*fA*mUmUmGmAmGmCmCmAmAmGmGfCmUmUmGmGmA*mA*mC; siRNA) [compound 33]”, half-maximal inhibition (IC50) was put at 0.075 nM, the 80% effect level (IC80) was put at 0.601 nM and the “Max KD” value was 91%.
Regarding “29 (sense fU*mC*fAmAfCmUfCmAfCmCfUmGfUmAfAmUfAmAfA; antisense mU*fU*mUfAmUfUmAfCmAfGmGfUmGfAmGfUmUfGmA*mU*mC; siRNA) [compound 29]”, it took 0.979 nM to reach half-maximal inhibition (IC50) and the “Max KD” value is reported as 68%.
Take “28 (sense mU*mC*fAmAmCmUfCfAfCmCmUfGmUmAmAmUfAmAmA; antisense mU*fU*mUmAmUmUmAmCmAmGmGmUmGfAmGmUmUmGmA*mU*mC; siRNA) [compound 28]”: the IC50 is 0.001 nM, the 80% effect level (IC80) was put at 0.711 nM and the “Max KD” value was found to be 95%.
“50 (sense fC*mA*fAmUfGmAfCmUfUmUfGmAfCmGfAmGfUmAfA; antisense mU*fU*mAmCmUmCmGmUmCmAmAmAmGfUmCmAmUmUmG*mG*mA; siRNA) [compound 50]”: the “Max KD” value is given as 16%.
For “35 (sense fU*mC*fCmAfAmGfCmCfUmUfGmGfCmUfCmAfAmUfA; antisense mU*fA*mUmUmGmAmGmCmCmAmAmGmGfCmUmUmGmGmA*mA*mC; siRNA) [compound 35]”, the IC50 was 0.622 nM and the “Max KD” value is recorded as 55%.

These data come from US20230095695A1, “RNAS FOR COMPLEMENT INHIBITION” (Apellis Pharmaceuticals, Inc., priority 2020, published 2023).
